We go through 17 molecules from patent US6444683B2, “17-azolyl steroids useful as androgen synthesis inhibitors” (University of Maryland at Baltimore, priority 1997, dated 2002).

Values joined by “and” are separate entries in the source; they are usually repeats but may differ in a detail not shown here. Equal values may be shown once. “Also recorded” adds a separate entry of the source. Read-outs that look alike come from different tables or passages of the source.

In series [1] the target is T1, human prostate 5α-reductase (Homo sapiens, UniProt P31213).
T1 construct: The enzymatic reactions were initiated by addition of human BPH microsomes; from tissue; host or cells: human benign prostatic hyperplasia (BPH) tissue, microsomal fraction
T1 sequence (P31213 1-254): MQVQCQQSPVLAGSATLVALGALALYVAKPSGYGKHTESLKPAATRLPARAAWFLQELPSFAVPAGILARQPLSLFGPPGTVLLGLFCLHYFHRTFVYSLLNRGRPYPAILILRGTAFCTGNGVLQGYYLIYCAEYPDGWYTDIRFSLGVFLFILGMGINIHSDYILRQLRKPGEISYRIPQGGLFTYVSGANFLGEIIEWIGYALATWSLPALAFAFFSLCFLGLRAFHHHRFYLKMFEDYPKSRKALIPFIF
Description: Inhibition of human prostate 5α-reductase in BPH microsomes (conversion of [7-3H]-testosterone to DHT). Format: biochemical. To be noted: for Inhibition of 5α-reductase, in words: human prostate enzyme. The procedure: […] The ethanol was evaporated to dryness under a gentle stream of air. […] The enzymatic reactions were initiated by addition of human BPH microsomes (about 180 μg of microsomal protein in 500 μl of phosphate buffer) in a total volume of 1.0 ml, and the incubations were performed for 10 min under oxygen in a shaking water bath at 37° C. The incubations were terminated by placing the sample tubes on ice and the addition of ether. Also, [^14C]-DHT (3000 dpm) and cold DHT (50 μg) were added to each tube as an internal standard and visualization marker, respectively. The steroids were extracted with ether and separated by TLC (chloroform:ether, 80:20) and visualized by exposure to iodine vapor. The extracts were analyzed for ^3H and ^14C using a liquid scintillation counter. The percentage conversion of [7-^3H]-testosterone to [^3H]-dihydrotestosterone was calculated and used to determine 5α-reductase activity.

The target of the next series is T2, Human P45017α (Homo sapiens, UniProt P05093).
T2 construct: Human testicular microsomes were prepared from human testes; from tissue; host or cells: human testes (untreated prostatic cancer patients undergoing orchidectomy), microsomal fraction
T2 sequence (P05093 1-508): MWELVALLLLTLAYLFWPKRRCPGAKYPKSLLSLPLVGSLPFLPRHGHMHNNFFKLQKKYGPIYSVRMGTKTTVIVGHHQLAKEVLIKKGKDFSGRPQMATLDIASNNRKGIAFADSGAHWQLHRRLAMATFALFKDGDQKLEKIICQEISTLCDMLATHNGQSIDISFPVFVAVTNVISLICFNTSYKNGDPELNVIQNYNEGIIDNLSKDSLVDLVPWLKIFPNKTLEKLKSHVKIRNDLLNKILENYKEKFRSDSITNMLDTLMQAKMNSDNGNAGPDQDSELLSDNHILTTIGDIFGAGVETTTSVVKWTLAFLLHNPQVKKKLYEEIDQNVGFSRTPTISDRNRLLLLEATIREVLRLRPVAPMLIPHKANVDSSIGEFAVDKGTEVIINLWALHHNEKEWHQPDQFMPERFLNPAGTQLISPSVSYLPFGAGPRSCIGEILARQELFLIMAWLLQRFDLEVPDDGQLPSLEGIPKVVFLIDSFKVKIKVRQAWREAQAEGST
Description: Inhibition of human testicular microsomal P45017α (lyase activity, release of C3H3COOH from [21-3H3]-17α-hydroxypregnenolone). The class given is biochemical. To be noted: for Ki: Human P45017α Ki, from Lineweaver-Burk plots and slope replots, Km of 17α-hydroxypregnenolone 560 nM; for inhibition at 0.15 µM / % Inhibition of human P45017α: inhibitor 150 nM, substrate 17α-hydroxypregnenolone 10 μM, mean of two determinations; for inhibition at 0.15 µM: read-out: % Inhibition of human P45017α. The procedure:
(§1) The microsomes were stored at −70° C. until assayed. Just before use, the thawed microsomes were diluted with 0.1 M phosphate buffer (pH 7.4) to appropriate concentrations.
(§2) This assay measures only the lyase activity of the P45017α enzyme.
(§3) IC50 values for inhibitors were calculated from the linear regression line in the plot of logit of lyase activity versus log of inhibitor concentration. […] Each inhibitor was examined at three concentrations.

The target in the next series is T3, Rat P45017α (Rattus norvegicus, UniProt P11715).
T3 sequence (P11715 1-507): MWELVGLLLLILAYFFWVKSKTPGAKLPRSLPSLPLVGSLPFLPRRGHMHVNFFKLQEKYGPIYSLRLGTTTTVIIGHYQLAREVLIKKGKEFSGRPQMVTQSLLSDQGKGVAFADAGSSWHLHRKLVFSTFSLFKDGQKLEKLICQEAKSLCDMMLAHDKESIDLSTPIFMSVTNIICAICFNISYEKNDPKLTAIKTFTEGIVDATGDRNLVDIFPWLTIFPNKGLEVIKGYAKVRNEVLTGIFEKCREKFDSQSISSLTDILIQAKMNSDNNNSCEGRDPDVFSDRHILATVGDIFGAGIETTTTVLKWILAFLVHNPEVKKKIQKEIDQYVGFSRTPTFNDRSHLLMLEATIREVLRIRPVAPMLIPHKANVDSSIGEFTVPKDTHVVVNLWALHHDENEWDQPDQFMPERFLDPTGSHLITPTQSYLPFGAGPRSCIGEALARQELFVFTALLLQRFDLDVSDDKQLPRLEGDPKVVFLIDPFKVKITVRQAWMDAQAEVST
Description: Inhibition of rat testicular microsomal P45017α (lyase activity). The class given is biochemical. Conditions: for Inhibition of rat testicular P45017α, in words / IC50: rat testicular microsomes; for IC50: mean ± SDM of at least two experiments, read-out: Rat P45017α IC50. The procedure:
as §1, §2, §3

Setting [2] is: human BPH microsomes, mean ± SDM of at least two experiments, read-out: 5α-Reductase IC50.
Setting [3] is: from IC50 values, rat vs human testicular microsomes.
The mark [4] stands for this setting: human testicular microsomes, mean ± SDM of at least two experiments, read-out: Human P45017α IC50.

For the molecule `CC(=O)O[C@H]1CC[C@@]2(C)C(=CC[C@@H]3[C@@H]2CC[C@]2(C)C(n4nccn4)=CC[C@@H]32)C1`, the melting point (commonly the temperature of the solid-liquid transition) fell in the range of 154 to 155 °C.

Molecule `CC(=O)O[C@H]1CC[C@@]2(C)C(=CC[C@@H]3[C@@H]2CC[C@]2(C)C(n4ccnn4)=CC[C@@H]32)C1` showed a melting point of 158 to 160 °C.

`CC(=O)O[C@H]1CC[C@@]2(C)C(=CC[C@@H]3[C@@H]2CC[C@]2(C)C(n4ncnn4)=CC[C@@H]32)C1`: the melting point fell in the range of 155 to 156 °C.

Molecule `CC(=O)O[C@H]1CC[C@@]2(C)C(=CC[C@@H]3[C@@H]2CC[C@]2(C)C(n4cccn4)=CC[C@@H]32)C1` had a melting point of 159 to 161 °C.

Turning to `CC(=O)O[C@H]1CC[C@@]2(C)C(=CC[C@H]3[C@@H]4CC[C@@H](n5cccn5)[C@@]4(C)CC[C@@H]32)C1`, the melting point fell in the range of 238 to 240 °C.

`C[C@]12CC[C@H](O)CC1=CC[C@@H]1[C@@H]2CC[C@]2(C)C(n3cncn3)=CC[C@@H]12` [Compound 6, 3β-hydroxy-17-(1H, 1,2,4-triazol-1-yl)androsta-5,16-diene]: the melting point was 185 to 189 °C (dec.). Also, the IC50 (usually the point on the concentration scale where inhibition reaches its midpoint) in series [1] (setting [2]) was about 160000 nM. In series [1], the “Inhibition of 5α-reductase, in words” value is listed as “poor inhibitors”. For the same molecule, on Human P45017α, the IC50 was 90 nM; the Ki (commonly the dissociation constant of the complex between target and ligand, obtained from inhibition or displacement) is 23 nM; the inhibition (commonly the share of the control response that was lost under treatment) at 0.15 µM came to 60%. In addition, the “Inhibition of human P45017α, in words” value at Human P45017α (human testicular microsomes) is “potent inhibitors; also recorded: powerful inhibitors”. In addition, the “Increase of potency towards the rat enzyme compared with human P45017α” value (shortened to “Increase”) on Rat P45017α (setting [3]) is 3.5 fold. On Rat P45017α, the “Inhibition of rat testicular P45017α, in words” value was “powerful inhibitors” and the IC50 worked out at 26 ± 13 nM.

With `C[C@]12CCC(=O)C=C1CC[C@@H]1[C@@H]2CC[C@]2(C)C(n3cncn3)=CC[C@@H]12` [Compound 7, 17-(1H, 1,2,4-triazol-1-yl)androsta-4,16-diene-3-one], the IC50 in series [1] (setting [2]) is 152 ± 10 nM; on Human P45017α (setting [4]), 55 ± 11 nM; on Rat P45017α it was 11 ± 3 nM. In series [1], the “Inhibition of 5α-reductase, in words” value was “potent inhibitors”. Also, the “Inhibition of human P45017α, in words” value on Human P45017α (human testicular microsomes) was “powerful inhibitors”. The “Increase” value at Rat P45017α (setting [3]) is 5 fold. Also, the “Inhibition of rat testicular P45017α, in words” value at Rat P45017α is “powerful inhibitors”.

In turn, `C[C@]12CC[C@H]3[C@@H](CC=C4C[C@@H](O)CC[C@@]43C)[C@@H]1CC[C@@H]2n1cncn1` [Compound 8, 3β-hydroxy-17β-(1H-1,2,4-triazol-1-yl)androst-5-ene] registered a melting point of 246 to 248 °C. Besides, on Human P45017α (setting [4]), the IC50 came out at 219 nM.

Consider `C[C@]12CCC(=O)C=C1CC[C@@H]1[C@@H]2CC[C@]2(C)C(n3ccnc3)=CC[C@@H]12` [Compound 12, 17-(1H-imidazol-1-yl)androsta-4,16-diene-3-one], for which the IC50 in series [1] (setting [2]) came out at 142 ± 5 nM; at Human P45017α, 7 ± 1 nM; on Rat P45017α, 8 ± 0.7 nM. Moreover, the “Inhibition of 5α-reductase, in words” value in series [1] is “potent inhibitors”. Moreover, at Human P45017α, the Ki was 1.8 nM and 1.9 nM. Also, the “Inhibition of human P45017α, in words” value at Human P45017α (human testicular microsomes) is “powerful inhibitors”. In addition, the “Increase” value on Rat P45017α (setting [3]) is “unchanged”. In addition, the “Inhibition of rat testicular P45017α, in words” value on Rat P45017α is given as “powerful inhibitors”.

Molecule `C[C@]12CC[C@H]3[C@@H](CC=C4C[C@@H](O)CC[C@@]43C)[C@@H]1CC[C@@H]2n1ccnc1` [Compound 13, 3β-Hydroxy-17β-(1H-imidazol-1-yl)androst-5-ene] came in with a melting point of 255 to 258 °C. The molecule also returned an IC50 against Human P45017α of 62 nM.

Regarding `C[C@]12CC[C@H]3[C@@H](CCC4=CC(=O)CC[C@@]43C)[C@@H]1CC[C@@H]2n1ccnc1` [Compound 14, 17β-(1H-imidazol-1-yl)androst-4-ene-3-one], the IC50 in series [1] stood at 765 ± 100 nM; at Human P45017α, 36 nM.

Regarding `C[C@]12CC[C@H](O)CC1=CC[C@@H]1[C@@H]2CC[C@]2(C)C(n3nccn3)=CC[C@@H]12` [Compound 18, 3β-hydroxy-17-(2H-1,2,3-triazol-2-yl)androsta-5,16-diene], the melting point lay in the range of 176 to 177 °C. Moreover, on Human P45017α (human testicular microsomes), the “Inhibition of human P45017α, in words” value was “non-inhibitory”. Also, on Human P45017α, the “% Inhibition of human P45017α” value was “N.I.^c”.

Take `C[C@]12CCC(=O)C=C1CC[C@@H]1[C@@H]2CC[C@]2(C)C(n3ccnn3)=CC[C@@H]12` [Compound 21, 17-(1H-1,2,3-triazol-1-yl)androsta-4,16-diene-3-one]: the melting point was 118 to 120 °C. Moreover, the IC50 in series [1] (setting [2]) was found to be 198 ± 33 nM. Moreover, the “Inhibition of 5α-reductase, in words” value in series [1] is given as “potent inhibitors”. At Human P45017α, this molecule came in with an IC50 of 19 ± 1 nM and a Ki of 8 nM. Besides, the “Inhibition of human P45017α, in words” value on Human P45017α (human testicular microsomes) is “powerful inhibitors”. Moreover, at Rat P45017α (setting [3]), the “Increase” value came to 2 fold. On Rat P45017α, the “Inhibition of rat testicular P45017α, in words” value is given as “powerful inhibitors” and the IC50 was found to be 9 ± 2 nM.

In turn, `C[C@]12CC[C@H](O)CC1=CC[C@@H]1[C@@H]2CC[C@]2(C)C(n3ncnn3)=CC[C@@H]12` [Compound 25, 3β-hydroxy-17-(2H-tetrazol-2-yl)androsta-5,16-diene] displayed a melting point of 195 to 198 °C. For the same molecule, the “Inhibition of human P45017α, in words” value at Human P45017α (human testicular microsomes) was “non-inhibitory”. For the same molecule, the “% Inhibition of human P45017α” value on Human P45017α is “N.I.^c”.

As to `C[C@]12CC[C@H](O)CC1=CC[C@@H]1[C@@H]2CC[C@]2(C)C(n3cnnn3)=CC[C@@H]12` [Compound 27, 3β-hydroxy-17-(1H-tetrazol-1-yl)androsta-5,16-diene], the melting point was 200 to 204 °C (dec.). Further, the “Inhibition of human P45017α, in words” value on Human P45017α (human testicular microsomes) was “non-inhibitory”. Moreover, the “% Inhibition of human P45017α” value on Human P45017α is listed as “N.I.^c”.

`C[C@]12CC[C@H](O)CC1=CC[C@@H]1[C@@H]2CC[C@]2(C)C(n3cccn3)=CC[C@@H]12` [Compound 30, 3β-hydroxy-17-(1H-pyrazol-1-yl)androsta-5,16-diene] yielded a melting point of 197 to 199 °C. Also, on Human P45017α (human testicular microsomes), the “Inhibition of human P45017α, in words” value is recorded as “moderate inhibitor”. The inhibition at 0.15 µM at Human P45017α was found to be 40%.

Turning to `CC(=O)N1CCN(c2ccc(OCC3COC(Cn4ccnc4)(c4ccc(Cl)cc4Cl)O3)cc2)CC1` (stereo not drawn) [Ketoconazole, reference compound], on Human P45017α (human testicular microsomes), the “Inhibition of human P45017α, in words” value is listed as “strong inhibition”. In addition, the “Decrease of potency towards the rat enzyme compared with human P45017α” value on Rat P45017α (setting [3]) was “about 3 fold”. Further, the IC50 on Rat P45017α came to 209 ± 17 nM.
